# Source: PubChem BioAssay AID1918943 (Molecular Pharmacology Branch, DTP, NCI, 2023)
# Where “and” joins values, the source holds several entries; their conditions need not be identical. Identical values can stand only once.
# Tested on: 855422-203-R-J1-PDC complex spheroid viability
# Assay: Anticancer human tumor 855422-203-R-J1-PDC patient-derived bladder carcinoma cell line growth inhibition
# Conditions: for viability, T/C: stronger effect = lower value
# Procedure, shortened: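 Complex spheroids of tumor cells with HUVEC and human MSCs, exposed to iadademstat combined with other agents. Each agent tested in half-log steps from near clinical Cmax (else 10 microM top), DMSO ≤0.25%.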
# [1] = curve of first compound, second compound 0.1 µM
# [2] = curve of first compound, second compound 0.316 µM
# [3] = curve of first compound, second compound 1 µM
# [4] = curve of first compound, second compound 3.16 µM
# [5] = curve of first compound, second compound 10 µM
# [6] = second compound 0.1 µM, first compound 0.00949 µM
# [7] = second compound 0.1 µM, first compound 0.03 µM
# [8] = second compound 0.1 µM, first compound 0.0949 µM
# [9] = second compound 0.1 µM, first compound 0.3 µM
# [10] = second compound 0.316 µM, first compound 0.00949 µM
# [11] = second compound 0.316 µM, first compound 0.03 µM
# [12] = second compound 0.316 µM, first compound 0.0949 µM
# [13] = second compound 0.316 µM, first compound 0.3 µM
# [14] = second compound 1 µM, first compound 0.00949 µM
# [15] = second compound 1 µM, first compound 0.03 µM
# [16] = second compound 1 µM, first compound 0.0949 µM
# [17] = second compound 1 µM, first compound 0.3 µM
# [18] = second compound 3.16 µM, first compound 0.00949 µM
# [19] = second compound 3.16 µM, first compound 0.03 µM
# [20] = second compound 3.16 µM, first compound 0.0949 µM
# [21] = second compound 3.16 µM, first compound 0.3 µM
# [22] = second compound 10 µM, first compound 0.00949 µM
# [23] = second compound 10 µM, first compound 0.03 µM
# [24] = second compound 10 µM, first compound 0.0949 µM
# [25] = second compound 10 µM, first compound 0.3 µM
# [26] = second compound 0.1 µM, first compound 0.0316 µM
# [27] = second compound 0.1 µM, first compound 0.1 µM
# [28] = second compound 0.316 µM, first compound 0.0316 µM
# [29] = second compound 0.316 µM, first compound 0.1 µM
# [30] = second compound 1 µM, first compound 0.0316 µM
# [31] = second compound 1 µM, first compound 0.1 µM
# [32] = second compound 3.16 µM, first compound 0.0316 µM
# [33] = second compound 3.16 µM, first compound 0.1 µM
# [34] = second compound 10 µM, first compound 0.0316 µM
# [35] = second compound 10 µM, first compound 0.1 µM
# 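Further: drug exposure lasted 7 days starting on day 3 after seeding.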
# 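Wherever viability, T/C is given: luminescence viability as percent of DMSO vehicle wells = 100%.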
structure (smiles),measurement,setting,value
Nc1ncn(C2CC(O)C(CO)S2)c(=O)n1 (stereo not given) + NC1CC1c1ccc(-c2cccc(O)c2)cc1,IC50,[1],> 300 nM
same,IC50,[2],> 300 nM
same,IC50,[3],> 300 nM
same,IC50,[4],> 300 nM
same,IC50,[5],> 300 nM
same,"viability, T/C","second compound 0.1 µM, first compound 0.000949 µM",94.4%
same,"viability, T/C","second compound 0.1 µM, first compound 0.003 µM",95.2%
same,"viability, T/C",[6],92.8%
same,"viability, T/C",[7],105%
same,"viability, T/C",[8],93.2%
same,"viability, T/C",[9],83.5%
same,"viability, T/C","second compound 0.316 µM, first compound 0.000949 µM",87.7%
same,"viability, T/C","second compound 0.316 µM, first compound 0.003 µM",91.2%
same,"viability, T/C",[10],92.3%
same,"viability, T/C",[11],103%
same,"viability, T/C",[12],97.5%
same,"viability, T/C",[13],77.9%
same,"viability, T/C","second compound 1 µM, first compound 0.000949 µM",87.3%
same,"viability, T/C","second compound 1 µM, first compound 0.003 µM",88.6%
same,"viability, T/C",[14],93.5%
same,"viability, T/C",[15],99.2%
same,"viability, T/C",[16],95.4%
same,"viability, T/C",[17],73.1%
same,"viability, T/C","second compound 3.16 µM, first compound 0.000949 µM",81.9%
same,"viability, T/C","second compound 3.16 µM, first compound 0.003 µM",84.9%
same,"viability, T/C",[18],91.3%
same,"viability, T/C",[19],93.4%
same,"viability, T/C",[20],93.7%
same,"viability, T/C",[21],73.4%
same,"viability, T/C","second compound 10 µM, first compound 0.000949 µM",85.9%
same,"viability, T/C","second compound 10 µM, first compound 0.003 µM",83.3%
same,"viability, T/C",[22],85.6%
same,"viability, T/C",[23],94.3%
same,"viability, T/C",[24],84.4%
same,"viability, T/C",[25],68.8%
CC1(C)CCC(CN2CCN(c3ccc(C(=O)NS(=O)(=O)c4ccc(NCC5CCOCC5)c([N+](=O)[O-])c4)c(Oc4cnc5[nH]ccc5c4)c3)CC2)=C(c2ccc(Cl)cc2)C1 + NC1CCC(NC2CC2c2ccccc2)CC1,IC50,[1],6210 nM
same,IC50,[2],6160 nM
same,IC50,[3],6040 nM
same,IC50,[4],5850 nM
same,IC50,[5],5530 nM
same,"viability, T/C",[26],103%
same,"viability, T/C",[27],94.7%
same,"viability, T/C","second compound 0.1 µM, first compound 0.316 µM",95.6%
same,"viability, T/C","second compound 0.1 µM, first compound 1 µM",101%
same,"viability, T/C","second compound 0.1 µM, first compound 3.16 µM",93.4%
same,"viability, T/C","second compound 0.1 µM, first compound 10 µM",19.2%
same,"viability, T/C",[28],96.7%
same,"viability, T/C",[29],95.1%
same,"viability, T/C","second compound 0.316 µM, first compound 0.316 µM",88.5%
same,"viability, T/C","second compound 0.316 µM, first compound 1 µM",100%
same,"viability, T/C","second compound 0.316 µM, first compound 3.16 µM",93.9%
same,"viability, T/C","second compound 0.316 µM, first compound 10 µM",18%
same,"viability, T/C",[30],94.4%
same,"viability, T/C",[31],99.1%
same,"viability, T/C","second compound 1 µM, first compound 0.316 µM",78.7%
same,"viability, T/C","second compound 1 µM, first compound 1 µM",93.3%
same,"viability, T/C","second compound 1 µM, first compound 3.16 µM",102%
same,"viability, T/C","second compound 1 µM, first compound 10 µM",16.2%
same,"viability, T/C",[32],85.4%
same,"viability, T/C",[33],84.3%
same,"viability, T/C","second compound 3.16 µM, first compound 0.316 µM",109%
same,"viability, T/C","second compound 3.16 µM, first compound 1 µM",101%
same,"viability, T/C","second compound 3.16 µM, first compound 3.16 µM",86.2%
same,"viability, T/C","second compound 3.16 µM, first compound 10 µM",18.3%
same,"viability, T/C",[34],82.3%
same,"viability, T/C",[35],78.4%
same,"viability, T/C","second compound 10 µM, first compound 0.316 µM",92.4%
same,"viability, T/C","second compound 10 µM, first compound 1 µM",72.2%
same,"viability, T/C","second compound 10 µM, first compound 3.16 µM",83.8%
same,"viability, T/C","second compound 10 µM, first compound 10 µM",16.2%
CC(C)CC(NC(=O)C(Cc1ccccc1)NC(=O)c1cnccn1)B(O)O (stereo not given) + NC1CC1c1ccc(-c2cccc(O)c2)cc1,IC50,[1],0.641 nM
same,IC50,[2],0.627 nM
same,IC50,[3],0.61 nM
same,IC50,[4],0.603 nM
same,IC50,[5],0.578 nM
same,"viability, T/C","second compound 0.1 µM, first compound 0.000316 µM",127%
same,"viability, T/C","second compound 0.1 µM, first compound 0.001 µM",1.42%
same,"viability, T/C","second compound 0.1 µM, first compound 0.00316 µM",0.04%
same,"viability, T/C","second compound 0.1 µM, first compound 0.01 µM",0.01%
same,"viability, T/C",[26],0.03%
same,"viability, T/C",[27],0.14%
same,"viability, T/C","second compound 0.316 µM, first compound 0.000316 µM",122%
same,"viability, T/C","second compound 0.316 µM, first compound 0.001 µM",1.03%
same,"viability, T/C","second compound 0.316 µM, first compound 0.00316 µM",0.02%
same,"viability, T/C","second compound 0.316 µM, first compound 0.01 µM",0.01%
same,"viability, T/C",[28],0.02%
same,"viability, T/C",[29],0.11%
same,"viability, T/C","second compound 1 µM, first compound 0.000316 µM",115%
same,"viability, T/C","second compound 1 µM, first compound 0.001 µM",0.89%
same,"viability, T/C","second compound 1 µM, first compound 0.00316 µM",0.02%
same,"viability, T/C","second compound 1 µM, first compound 0.01 µM",0.01%
same,"viability, T/C",[30],0.02%
same,"viability, T/C",[31],0.12%
same,"viability, T/C","second compound 3.16 µM, first compound 0.000316 µM",113%
same,"viability, T/C","second compound 3.16 µM, first compound 0.001 µM",0.68%
same,"viability, T/C","second compound 3.16 µM, first compound 0.00316 µM",0.03%
same,"viability, T/C","second compound 3.16 µM, first compound 0.01 µM",0.02%
same,"viability, T/C",[32],0.03%
same,"viability, T/C",[33],0.12%
same,"viability, T/C","second compound 10 µM, first compound 0.000316 µM",105%
same,"viability, T/C","second compound 10 µM, first compound 0.001 µM",0.52%
same,"viability, T/C","second compound 10 µM, first compound 0.00316 µM",0.15%
same,"viability, T/C","second compound 10 µM, first compound 0.01 µM",0.14%
same,"viability, T/C",[34],0.13%
same,"viability, T/C",[35],0.19%
CC(C)c1c(-c2ccccc2)nc2c(C#N)c[nH]n2c1=O,"viability, T/C",compound 0.0316 µM,98.3% and 101%
same,"viability, T/C",compound 0.1 µM,104% and 106%
same,"viability, T/C",compound 0.316 µM,96.1% and 107%
same,"viability, T/C",compound 1 µM,104% and 99.9%
same,"viability, T/C",compound 3.16 µM,94.5% and 99.2%
same,"viability, T/C",compound 10 µM,95.4% and 90.9%
same,IC50,curve of compound,> 10000 nM
O=C(c1cc(Cc2n[nH]c(=O)c3ccccc23)ccc1F)N1CCN(C(=O)C2CC2)CC1,"viability, T/C",compound 0.0316 µM,88.5% and 98.6%
same,"viability, T/C",compound 0.1 µM,94.1% and 111%
same,"viability, T/C",compound 0.316 µM,96% and 110%
same,"viability, T/C",compound 1 µM,88.8% and 98.8%
same,"viability, T/C",compound 3.16 µM,86.5% and 91.7%
same,"viability, T/C",compound 10 µM,63.3% and 76.1%
same,IC50,curve of compound,> 10000 nM
O=C(C=Cc1cccc(S(=O)(=O)Nc2ccccc2)c1)NO + NC1CCC(NC2CC2c2ccccc2)CC1,IC50,[1],452 nM
same,IC50,[2],468 nM
same,IC50,[3],296 nM
same,IC50,[4],343 nM
same,IC50,[5],357 nM
same,"viability, T/C",[6],88.3%
same,"viability, T/C",[7],88.7%
same,"viability, T/C",[8],91.3%
same,"viability, T/C",[9],68.9%
same,"viability, T/C","second compound 0.1 µM, first compound 0.949 µM",15.2%
same,"viability, T/C","second compound 0.1 µM, first compound 3 µM",0.2%
same,"viability, T/C",[10],96.1%
same,"viability, T/C",[11],88.6%
same,"viability, T/C",[12],80.7%
same,"viability, T/C",[13],71.8%
same,"viability, T/C","second compound 0.316 µM, first compound 0.949 µM",17.4%
same,"viability, T/C","second compound 0.316 µM, first compound 3 µM",0.2%
same,"viability, T/C",[14],98%
same,"viability, T/C",[15],90.1%
same,"viability, T/C",[16],67.7%
same,"viability, T/C",[17],59.2%
same,"viability, T/C","second compound 1 µM, first compound 0.949 µM",13.4%
same,"viability, T/C","second compound 1 µM, first compound 3 µM",0.17%
same,"viability, T/C",[18],94%
same,"viability, T/C",[19],92%
same,"viability, T/C",[20],81.6%
same,"viability, T/C",[21],57.4%
same,"viability, T/C","second compound 3.16 µM, first compound 0.949 µM",7.23%
same,"viability, T/C","second compound 3.16 µM, first compound 3 µM",0.14%
same,"viability, T/C",[22],90.8%
same,"viability, T/C",[23],82.7%
same,"viability, T/C",[24],78.9%
same,"viability, T/C",[25],58.5%
same,"viability, T/C","second compound 10 µM, first compound 0.949 µM",5.21%
same,"viability, T/C","second compound 10 µM, first compound 3 µM",0.59%
NC1CCC(NC2CC2c2ccccc2)CC1 (stereo not given),"viability, T/C",compound 0.1 µM,89.9% [middle of 25 runs]
same,"viability, T/C",compound 0.316 µM,96.7% and 90.2%
same,"viability, T/C",compound 1 µM,86.6% [middle of 25 runs]
same,"viability, T/C",compound 3.16 µM,87.7% [middle of 25 runs]
same,"viability, T/C",compound 10 µM,78.7% [middle of 23 runs]
same,IC50,"compound alone, run of 11/29/2021",> 10000 nM
